Marks after values point to notes of the source that are not given here.
Columns and labels:
S. pneumoniae 22257 = assay: Combination Time-kill kinetics; format: cell-based; details: antibiotic alone at 4 × MIC (Azithromycin 0.12 ug/ml, Cefuroxime 8 ug/ml)
Procedure: (§1) As used herein, “synergy” refers to the in vitro effect of administration of a combination of an antibacterial agent such as a Fab I inhibiter, and antiinfective agent such that (1) the fractional inhibitory concentration (FIC) is less than or equal to 0.5 in an FIC assay described herein; or (2) there is at least a 100-fold (2 log10) increase in killing at 24 hours for the combination as compared with the bioactive agent alone in a time kill curve assay as described herein. An FIC of ≦0.5 is evidence of synergy. An additive response has an FIC value of >0.5 and less than or equal to 1, while an indifferent response has an FIC value of >1 and ≦2. An additive effect may still indicate that the combination of bioactive agent and cationic peptide are therapeutically useful.

[1] = system: S. pneumoniae 22425, a penicillin and macrolide resistant clinical isolate; assay: Combination time-kill studies; format: cell-based; details: for effect of compound G on the bactericidal activity (kill kinetics, kill extent) of the antibiotic: combination with compound G at 0.03 μg/ml and 1 μg/ml, S. pneumoniae
Procedure: Combination time-kill studies were performed as follows. Bacterial inocula were prepared as for MIC determination according to CLSI guidelines. Log phase cells (˜10^6 CFU/ml) were inoculated into 24 well plates and incubated with the indicated concentrations of compound G and commercial antibiotics for 24 hours at 35° C. At indicated time points samples were removed for determination of viable CFU counts. Results are plotted as log CFU/ml vs. time.

S. aureus strains = assay: Checkerboard combination studies of compound G and commercial antibiotics (FIG. 6); format: cell-based; details: in combination with compound G, S. aureus strains tested
Procedure: Checkerboard experiments were performed and analyzed according to standard procedures as outlined below.

E. faecalis A6221420 = assay: Combination Time-kill kinetics; format: cell-based; details: Meropenem alone, 4 × MIC (16 ug/ml)
Procedure: as §1

S. pneumoniae 22425 = assay: Combination Time-kill kinetics; format: cell-based; details: Gatifloxacin alone, 4 × MIC (2 ug/ml)
Procedure: as §1

## CN(Cc1cc2ccccc2n1C)C(=O)/C=C/c1ccc(N2C(=O)CCC2=O)nc1 [Example 213, (E)-3-[6-(2,5-Dioxo-pyrrolidin-1-yl)pyridin-3-yl]-N-methyl-N-(1-methyl-1H-indol-2-ylmethyl)acrylamide]
other
  melting point: 185 to 187 °C

## CN1CCN(C(=O)CCC(=O)Nc2ccc(/C=C/C(=O)N(C)Cc3cc4ccccc4n3C)cn2)CC1 [Example 215, (E)-N-(5-{2-[Methyl-(1-methyl-1H-indol-2-Ylmethyl)carbamoyl]vinyl}pyridin-2-yl)-4-(4-methyl-piperazin-1-yl)-4-oxo-butyramide]
other
  melting point: 145 to 147 °C (dec.)

## CC[C@H]1OC(=O)[C@H](C)[C@@H](O[C@H]2C[C@@](C)(OC)[C@@H](O)[C@H](C)O2)[C@H](C)[C@@H](O[C@@H]2O[C@H](C)C[C@H](N(C)C)[C@H]2O)[C@](C)(O)C[C@@H](C)CN(C)[C@H](C)[C@@H](O)[C@]1(C)O [Azithromycin, reference compound]
S. pneumoniae 22257
  logCFU/ml at Time (hr): 0: 6.35 logCFU/ml
  logCFU/ml at Time (hr): 3: 4.53 logCFU/ml
  logCFU/ml at Time (hr): 6: 3.39 logCFU/ml
  logCFU/ml at Time (hr): 8: ≤ 1.70* logCFU/ml
  logCFU/ml at Time (hr): 24: ≤ 1.70* logCFU/ml
  ΔlogCFU/ml (24-0 hr): −4.65 logCFU/ml
[1]
  effect of compound G on the bactericidal activity (kill kinetics, kill extent) of the antibiotic: no effect

## CN(Cc1cc2ccccc2n1C)C(=O)/C=C/c1ccc(NC(=O)CCC(=O)N2CCOCC2)nc1 [Example 216, (E)-N-(5-{2-[Methyl-(1-methyl-1H-indol-2-ylmethyl)carbamoyl]vinyl}pyridin-2-yl)-4-morpholin-4-yl-4-oxo-butyramide]
other
  melting point: 206 to 209 °C (dec.)

## CC(=O)NC[C@H]1CN(c2ccc(N3CCOCC3)c(F)c2)C(=O)O1 [linezolid]
S. aureus strains
  combination effect with compound G (synergistic / additive / antagonism): synergistic effect

## CN(Cc1cc2ccccc2n1C)C(=O)/C=C/c1ccc(NC(=O)CCC(N)=O)nc1 [Example 214, (E)-N-(5-{2-[Methyl-(1-methyl-1H-indol-2-ylmethyl)carbamoyl]vinyl}pyridin-2-yl)succinamide]
other
  melting point: 225 to 227 °C

## Gentamicin
S. aureus strains
  combination effect with compound G (synergistic / additive / antagonism): synergistic effect

## C[C@@H](O)[C@H]1C(=O)N2C(C(=O)O)=C(S[C@@H]3CN[C@H](C(=O)N(C)C)C3)[C@H](C)[C@H]12 [Meropenem, reference compound]
E. faecalis A6221420
  logCFU/ml at Time (hr): 0: 5.12 logCFU/ml
  logCFU/ml at Time (hr): 2: 4.31 logCFU/ml
  logCFU/ml at Time (hr): 4: 3.41 logCFU/ml
  logCFU/ml at Time (hr): 8: 2.67 logCFU/ml
  logCFU/ml at Time (hr): 24: ≤ 1.70* logCFU/ml
  ΔlogCFU/ml (24-0 hr): −3.43 logCFU/ml

## COc1c(N2CCNC(C)C2)c(F)cc2c(=O)c(C(=O)O)cn(C3CC3)c12 (stereo not drawn) [Gatifloxacin, reference compound]
S. pneumoniae 22425
  logCFU/ml at Time (hr): 0: 5.18 logCFU/ml
  logCFU/ml at Time (hr): 2: 4.26 logCFU/ml
  logCFU/ml at Time (hr): 6: 2.77 logCFU/ml
  logCFU/ml at Time (hr): 24: ≤ 1.70* logCFU/ml
  ΔlogCFU/ml (24-0 hr): −3.48 logCFU/ml
[1]; antibiotic alone, S. pneumoniae 22425, 24 hours, FIG. 8
  bactericidal activity, log reduction in CFU at 24 hours: −3.5 log
[1]
  effect of compound G on the bactericidal activity (kill kinetics, kill extent) of the antibiotic: no effect

## CO/N=C(\C(=O)N[C@@H]1C(=O)N2C(C(=O)O)=C(COC(N)=O)CS[C@H]12)c1ccco1 [Cefuroxime, reference compound]
S. pneumoniae 22257
  logCFU/ml at Time (hr): 0: 6.39 logCFU/ml
  logCFU/ml at Time (hr): 3: 1.92 logCFU/ml
  logCFU/ml at Time (hr): 6: 1.70 logCFU/ml
  logCFU/ml at Time (hr): 8: ≤ 1.70* logCFU/ml
  logCFU/ml at Time (hr): 24: ≤ 1.70* logCFU/ml
  ΔlogCFU/ml (24-0 hr): −4.69 logCFU/ml
[1]
  effect of compound G on the bactericidal activity (kill kinetics, kill extent) of the antibiotic: no effect

— patent US7879872B2, “Compositions comprising multiple bioactive agents, and methods of using the same” (Affinium Pharmaceuticals, Inc., priority 2003, dated 2011)
